Measured values from patent publication US8580794B2 (AbbVie Inc., priority 2009, dated 2013).

Target: GST-Bc1-2 (Homo sapiens, UniProt P10415)
Experiment: Time Resolved-Fluorescence Resonance Energy Transfer (TR-FRET) Bcl-2 binding assay with F-Bak peptide probe
Conditions: GST-Bcl-2 1 nM, F-Bak probe 100 nM, Tb-anti-GST 1 nM; '<' = below limit of detection; read-out: TR-FRET Bcl-2 Binding Ki

Chain of GST-Bc1-2 (P10415 whole entry): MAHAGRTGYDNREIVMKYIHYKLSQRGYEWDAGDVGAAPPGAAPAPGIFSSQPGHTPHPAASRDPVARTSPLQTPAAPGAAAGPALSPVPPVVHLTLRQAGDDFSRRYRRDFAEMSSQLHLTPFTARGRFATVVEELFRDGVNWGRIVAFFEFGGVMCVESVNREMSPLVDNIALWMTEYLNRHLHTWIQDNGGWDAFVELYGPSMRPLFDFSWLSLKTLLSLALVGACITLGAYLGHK

SMILES	Ki [nM]
CC1(C)CC(c2ccc(Cl)cc2)=C(CN2CCN(c3ccc(C(=O)NS(=O)(=O)c4ccc(N[C@H]5CC[C@H](N6CCOCC6)CC5)c([N+](=O)[O-])c4)c(Oc4cnc5[nH]ccc5c4)c3)CC2)CO1 [Example 33, Trans-4-(4-{[4-(4-chlorophenyl)-6,6-dimethyl-5,6-dihydro-2H-pyran-3-yl]methyl}piperazin-1-yl)-N-({4-[(4-morpholin-4-ylcyclohexyl)amino]-3-nitrophenyl}sulfonyl)-2-(1H-pyrrolo[2,3-b]pyridin-5-yloxy)benzamide]	< 0.01
CC(=O)N1CCOC(CNc2ccc(S(=O)(=O)NC(=O)c3ccc(N4CCN(CC5=C(c6ccc(Cl)cc6)CC(C)(C)CC5)CC4)cc3Oc3cnc4[nH]ccc4c3)cc2[N+](=O)[O-])C1 (stereo not drawn) [Example 136, N-[(4-{[(4-acetylmorpholin-2-yl)methyl]amino}-3-nitrophenyl)sulfonyl]-4-(4-{[2-(4-chlorophenyl)-4,4-dimethylcyclohex-1-en-1-yl]methyl}piperazin-1-yl)-2-(1H-pyrrolo[2,3-b]pyridin-5-yloxy)benzamide]	< 0.01
CC1(C)CCC(CN2CCN(c3ccc(C(=O)NS(=O)(=O)c4ccc(NCC5CCOCC5)c(Cl)c4)c(Oc4cnc5[nH]ccc5c4)c3)CC2)=C(c2ccc(Cl)cc2)C1 [Example 306, 4-(4-{[2-(4-chlorophenyl)-4,4-dimethylcyclohex-1-en-1-yl]methyl}piperazin-1-yl)-N-({3-chloro-4-[(tetrahydro-2H-pyran-4-ylmethyl)amino]phenyl}sulfonyl)-2-(1H-pyrrolo[2,3-b]pyridin-5-yloxy)benzamide]	2.07
CC1(C)CCC(CN2CCN(c3ccc(C(=O)NS(=O)(=O)c4ccc(NCC5(N)CCOCC5)c([N+](=O)[O-])c4)c(Oc4cnc5[nH]ccc5c4)c3)CC2)=C(c2ccc(Cl)cc2)C1 [Example 108, N-[(4-{[(4-aminotetrahydro-2H-pyran-4-yl)methyl]amino}-3-nitrophenyl)sulfonyl]-4-(4-{[2-(4-chlorophenyl)-4,4-dimethylcyclohex-1-en-1-yl]methyl}piperazin-1-yl)-2-(1H-pyrrolo[2,3-b]pyridin-5-yloxy)benzamide]	< 0.01
CC1(C)CCC(CN2CCN(c3ccc(C(=O)NS(=O)(=O)c4cnc(OCC5CCc6nccn6C5)c(Cl)c4)c(Oc4cnc5[nH]ccc5c4)c3)CC2)=C(c2ccc(Cl)cc2)C1 (stereo not drawn) [Example 342, 4-(4-{[2-(4-chlorophenyl)-4,4-dimethylcyclohex-1-en-1-yl]methyl}piperazin-1-yl)-N-{[5-chloro-6-(5,6,7,8-tetrahydroimidazo[1,2-a]pyridin-6-ylmethoxy)pyridin-3-yl]sulfonyl}-2-(1H-pyrrolo[2,3-b]pyridin-5-yloxy)benzamide]	< 0.01
CO[C@H]1CC[C@H](COc2ccc(S(=O)(=O)NC(=O)c3ccc(N4CCN(CC5=C(c6ccc(Cl)cc6)CC(C)(C)CC5)CC4)cc3Oc3cnc4[nH]ccc4c3)cc2[N+](=O)[O-])CC1 [Example 125, Trans-4-(4-{[2-(4-chlorophenyl)-4,4-dimethylcyclohex-1-en-1-yl]methyl}piperazin-1-yl)-N-({4-[(4-methoxycyclohexyl)methoxy]-3-nitrophenyl}sulfonyl)-2-(1H-pyrrolo[2,3-b]pyridin-5-yloxy)benzamide]	< 0.01
CC1(C)CCC(CN2CCN(c3ccc(C(=O)NS(=O)(=O)c4ccc(OCC5(F)CCN(C(=O)OC(C)(C)C)CC5)c([N+](=O)[O-])c4)c(Oc4cnc5[nH]ccc5c4)c3)CC2)=C(c2ccc(Cl)cc2)C1 [Example 126, tert-butyl 4-{[4-({[4-(4-{[2-(4-chlorophenyl)-4,4-dimethylcyclohex-1-en-1-yl]methyl}piperazin-1-yl)-2-(1H-pyrrolo[2,3-b]pyridin-5-yloxy)benzoyl]amino}sulfonyl)-2-nitrophenoxy]methyl}-4-fluoropiperidine-1-carboxylate]	< 0.01
CC1(C)CCC(CN2CCN(c3ccc(C(=O)NS(=O)(=O)c4cnc(OCC5COCCO5)c(Br)c4)c(Oc4cnc5[nH]ccc5c4)c3)CC2)=C(c2ccc(Cl)cc2)C1 (stereo not drawn) [Example 50, N-{[5-bromo-6-(1,4-dioxan-2-ylmethoxy)pyridin-3-yl]sulfonyl}-4-(4-{[2-(4-chlorophenyl)-4,4-dimethylcyclohex-1-en-1-yl]methyl}piperazin-1-yl)-2-(1H-pyrrolo[2,3-b]pyridin-5-yloxy)benzamide]	0.021
CC1(C)CC(c2ccc(Cl)cc2)=C(CN2CCN(c3ccc(C(=O)NS(=O)(=O)c4ccc(NCC5CCOCC5)c([N+](=O)[O-])c4)c(Oc4ccc5[nH]ccc5c4)c3)CC2)CO1 [Example 23, 4-(4-{[4-(4-chlorophenyl)-6,6-dimethyl-5,6-dihydro-2H-pyran-3-yl]methyl}piperazin-1-yl)-2-(1H-indol-5-yloxy)-N-({3-nitro-4-[(tetrahydro-2H-pyran-4-ylmethyl)amino]phenyl}sulfonyl)benzamide]	0.083
CC1(C)CCC(CN2CCN(c3ccc(C(=O)NS(=O)(=O)c4cnc(OCC5(F)CCN(CC(F)F)CC5)c(Cl)c4)c(Oc4cnc5[nH]ccc5c4)c3)CC2)=C(c2ccc(Cl)cc2)C1 [Example 285, N-[(5-chloro-6-{[1-(2,2-difluoroethyl)-4-fluoropiperidin-4-yl]methoxy}pyridin-3-yl)sulfonyl]-4-(4-{[2-(4-chlorophenyl)-4,4-dimethylcyclohex-1-en-1-yl]methyl}piperazin-1-yl)-2-(1H-pyrrolo[2,3-b]pyridin-5-yloxy)benzamide]	< 0.01
CC1(C)CCCC(CN2CCN(c3ccc(C(=O)NS(=O)(=O)c4ccc(NCC5CCOCC5)c([N+](=O)[O-])c4)c(Oc4cnc5[nH]ccc5c4)c3)CC2)=C1c1ccc(Cl)cc1 [Example 150, 4-(4-{[2-(4-chlorophenyl)-3,3-dimethylcyclohex-1-en-1-yl]methyl}piperazin-1-yl)-N-({3-nitro-4-[(tetrahydro-2H-pyran-4-ylmethyl)amino]phenyl}sulfonyl)-2-(1H-pyrrolo[2,3-b]pyridin-5-yloxy)benzamide]	< 0.01
CC1(C)CCC(CN2CCN(c3ccc(C(=O)NS(=O)(=O)c4ccc(N[C@H]5CC[C@H](NC6CCOCC6)CC5)c([N+](=O)[O-])c4)c(Oc4cnc5[nH]ccc5c4)c3)CC2)=C(c2ccc(Cl)cc2)C1 [Example 123, Trans-4-(4-{[2-(4-chlorophenyl)-4,4-dimethylcyclohex-1-en-1-yl]methyl}piperazin-1-yl)-N-[(3-nitro-4-{[4-(tetrahydro-2H-pyran-4-ylamino)cyclohexyl]amino}phenyl)sulfonyl]-2-(1H-pyrrolo[2,3-b]pyridin-5-yloxy)benzamide]	< 0.01
CC1(C)CCC(CN2CCN(c3ccc(C(=O)NS(=O)(=O)c4ccc(OCC5(F)CCOCC5)c([N+](=O)[O-])c4)c(Oc4cnc5[nH]ccc5c4)c3)CC2)=C(c2ccc(Cl)cc2)C1 [Example 37, 4-(4-{[2-(4-chlorophenyl)-4,4-dimethylcyclohex-1-en-1-yl]methyl}piperazin-1-yl)-N-({4-[(4-fluorotetrahydro-2H-pyran-4-yl)methoxy]-3-nitrophenyl}sulfonyl)-2-(1H-pyrrolo[2,3-b]pyridin-5-yloxy)benzamide]	< 0.01
CC1(C)CCC(CN2CCN(c3ccc(C(=O)NS(=O)(=O)c4ccc(N[C@H]5CC[C@@H](N6CCOCC6)C5)c([N+](=O)[O-])c4)c(Oc4cnc5[nH]ccc5c4)c3)CC2)=C(c2ccc(Cl)cc2)C1 [Example 111, 4-(4-{[2-(4-chlorophenyl)-4,4-dimethylcyclohex-1-en-1-yl]methyl}piperazin-1-yl)-N-[(4-{[(1S,3R)-3-morpholin-4-ylcyclopentyl]amino}-3-nitrophenyl)sulfonyl]-2-(1H-pyrrolo[2,3-b]pyridin-5-yloxy)benzamide]	< 0.01
CC1(C)CCC(CN2CCN(c3ccc(C(=O)NS(=O)(=O)c4ccc(OC[C@@H]5CC(F)(F)CN5C5COC5)c([N+](=O)[O-])c4)c(Oc4cnc5[nH]ccc5c4)c3)CC2)=C(c2ccc(Cl)cc2)C1 [Example 168, 4-(4-{[2-(4-chlorophenyl)-4,4-dimethylcyclohex-1-en-1-yl]methyl}piperazin-1-yl)-N-[(4-{[(2S)-4,4-difluoro-1-oxetan-3-ylpyrrolidin-2-yl]methoxy}-3-nitrophenyl)sulfonyl]-2-(1H-pyrrolo[2,3-b]pyridin-5-yloxy)benzamide]	< 0.01
O=C(NS(=O)(=O)c1ccc(NCC2CCOCC2)c([N+](=O)[O-])c1)c1ccc(N2CCN(Cc3ccccc3-c3ccc(Cl)cc3)CC2)cc1Oc1cnc2[nH]ccc2c1 [Example 1, 4-{4-[(4′-chloro-1,1′-biphenyl-2-yl)methyl]piperazin-1-yl}-N-({3-nitro-4-[(tetrahydro-2H-pyran-4-ylmethyl)amino]phenyl}sulfonyl)-2-(1H-pyrrolo[2,3-b]pyridin-5-yloxy)benzamide]	0.225
CC1(C)CCC(CN2CCN(c3ccc(C(=O)NS(=O)(=O)c4cc(F)c(F)c(OCC5(F)CCOCC5)c4)c(Oc4cnc5[nH]ccc5c4)c3)CC2)=C(c2ccc(Cl)cc2)C1 [Example 313, 4-(4-{[2-(4-chlorophenyl)-4,4-dimethylcyclohex-1-en-1-yl]methyl}piperazin-1-yl)-N-({3,4-difluoro-5-[(4-fluorotetrahydro-2H-pyran-4-yl)methoxy]phenyl}sulfonyl)-2-(1H-pyrrolo[2,3-b]pyridin-5-yloxy)benzamide]	1.1
CN1CCC(CNc2ccc(S(=O)(=O)NC(=O)c3ccc(N4CCN(CC5=C(c6ccc(Cl)cc6)CC(C)(C)CC5)CC4)cc3Oc3cnc4[nH]ccc4c3)cc2[N+](=O)[O-])CC1 [Example 65, 4-(4-{[2-(4-chlorophenyl)-4,4-dimethylcyclohex-1-en-1-yl]methyl}piperazin-1-yl)-N-[(4-{[(1-methylpiperidin-4-yl)methyl]amino}-3-nitrophenyl)sulfonyl]-2-(1H-pyrrolo[2,3-b]pyridin-5-yloxy)benzamide]	< 0.01

Same assay, conditions: Table 4, selected compounds of Ser. No. 12/631,404; read-out: Bcl-2 FRET Ki

SMILES	Ki [nM]
CC1(C)CC(c2ccc(Cl)cc2)=C(CN2CCN(c3ccc(C(=O)NS(=O)(=O)c4ccc(NCC5CCOCC5)c([N+](=O)[O-])c4)c(Oc4ccc5[nH]ccc5c4)c3)CC2)CO1 [Example 23, 4-(4-{[4-(4-chlorophenyl)-6,6-dimethyl-5,6-dihydro-2H-pyran-3-yl]methyl}piperazin-1-yl)-2-(1H-indol-5-yloxy)-N-({3-nitro-4-[(tetrahydro-2H-pyran-4-ylmethyl)amino]phenyl}sulfonyl)benzamide]	0.083

Same assay, conditions: Table 5, direct comparison Z=N vs Z=C analogs; read-out: Bcl-2 FRET ki

SMILES	Ki [nM]
CC1(C)CC(c2ccc(Cl)cc2)=C(CN2CCN(c3ccc(C(=O)NS(=O)(=O)c4ccc(NCC5CCOCC5)c([N+](=O)[O-])c4)c(Oc4ccc5[nH]ccc5c4)c3)CC2)CO1 [Example 23, 4-(4-{[4-(4-chlorophenyl)-6,6-dimethyl-5,6-dihydro-2H-pyran-3-yl]methyl}piperazin-1-yl)-2-(1H-indol-5-yloxy)-N-({3-nitro-4-[(tetrahydro-2H-pyran-4-ylmethyl)amino]phenyl}sulfonyl)benzamide]	0.083
O=C(NS(=O)(=O)c1ccc(NCC2CCOCC2)c([N+](=O)[O-])c1)c1ccc(N2CCN(Cc3ccccc3-c3ccc(Cl)cc3)CC2)cc1Oc1cnc2[nH]ccc2c1 [Example 1, 4-{4-[(4′-chloro-1,1′-biphenyl-2-yl)methyl]piperazin-1-yl}-N-({3-nitro-4-[(tetrahydro-2H-pyran-4-ylmethyl)amino]phenyl}sulfonyl)-2-(1H-pyrrolo[2,3-b]pyridin-5-yloxy)benzamide]	0.225
